Data on one compound can be found in patent US20170368049A1 (HANMI PHARM. CO., LTD., priority 2015, published 2017).

A short description of this data set: Photoreaction test with cholecalciferol (photostability chamber). As to conditions: photostability chamber, 1,200,000 LUX, 18.44 hours. The class given is physicochemical. How it is done: Cholecalciferol (vitamin D3) also has poor physiochemical stability and may not ensure stability with time. Generally, cholecalciferol is known to be susceptible to moisture, light, and heat. […] The amount of trans-vitamin D3 (after storage in a photostability chamber under 1,200,000 LUX for 18.44 hours) was increased by about 1.2% with respect to initial level, while the amount of vitamin D3 was reduced by about 10%.

For the compound `C=C1CC[C@H](O)C/C1=C/C=C1\CCC[C@]2(C)[C@@H]([C@H](C)CCCC(C)C)CC[C@@H]12` [cholecalciferol, Cholecalciferol], the “increase of the amount of trans-vitamin D3 with respect to initial level” value is “about 1.2%” and the “reduction of the amount of vitamin D3” value is “about 10%”.
